According to US20240158446A1, “CYCLIC COMPOUND HAVING SELECTIVE INHIBITORY ACTION ON KRAS OVER HRAS AND NRAS” (CHUGAI SEIYAKU KABUSHIKI KAISHA, priority 2021, published 2024):

Legend:
[1] = target: GDP-bound NRAS wild-type protein (Homo sapiens, UniProt P01111); assay: Binding to NRAS by surface plasmon resonance (SPR), Single Cycle Kinetics; settings: SPR KD ratio NRAS/KRAS, class symbols
[2] = target: GDP-bound HRAS wild-type protein (Homo sapiens, UniProt P01112); assay: Binding to HRAS by surface plasmon resonance (SPR), Single Cycle Kinetics; settings: SPR KD ratio HRAS/KRAS, class symbols
Sequence of GDP-bound HRAS wild-type protein (P01112 whole entry): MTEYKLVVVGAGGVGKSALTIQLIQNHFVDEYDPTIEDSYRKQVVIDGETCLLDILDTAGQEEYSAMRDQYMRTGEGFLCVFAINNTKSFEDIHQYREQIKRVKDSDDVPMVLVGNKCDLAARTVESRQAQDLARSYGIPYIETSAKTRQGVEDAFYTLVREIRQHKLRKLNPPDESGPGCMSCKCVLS

Sequence of GDP-bound NRAS wild-type protein (P01111 whole entry): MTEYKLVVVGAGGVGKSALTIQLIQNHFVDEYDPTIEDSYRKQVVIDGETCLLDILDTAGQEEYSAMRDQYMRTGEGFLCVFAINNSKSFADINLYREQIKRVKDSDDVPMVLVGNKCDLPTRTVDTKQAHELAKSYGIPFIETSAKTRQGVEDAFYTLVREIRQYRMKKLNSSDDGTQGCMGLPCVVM

Compound | NRAS/KRAS (ratio of KD value with respect to GDP-bound NRAS wild-type protein to KD value with respect to KRAS) [1] | HRAS/KRAS (ratio of KD value with respect to GDP-bound HRAS wild-type protein to KD value with respect to KRAS) [2]
CCC[C@H]1C(=O)N[C@@H]([C@@H](C)CC)C(=O)N(C)CC(=O)N(C)[C@H]2C/C=C\CCN(C2=O)[C@@H](Cc2ccc(C)cc2)C(=O)N(C)CC(=O)N[C@@H](CCc2ccc3c(C)cn(C)c3c2)C(=O)N2C[C@H](OCC)C[C@H]2C(=O)NC2(CC(C)(C)C2)C(=O)N(C)[C@@H](C(CC)CC)C(=O)N(C)[C@H](C(=O)N(C)C)CC(=O)N1C [PP2910] | AA (a compound having 20 or more is denoted as AA) | A (a compound having 10 or more and less than 20 is denoted as A)
CCC(CC)[C@H]1C(=O)N(C)[C@H](C(=O)N(C)C)CC(=O)N(C)[C@@H](COC)C(=O)N[C@@H]([C@@H](C)CC)C(=O)N(C)CC(=O)N(C)[C@H]2C/C=C\CCN(C2=O)[C@@H](Cc2ccc(C)cc2)C(=O)N(C)CC(=O)N[C@@H](CCc2cc(F)c(C(F)(F)F)c(F)c2)C(=O)N2CCCC[C@H]2C(=O)NC2(CC(C)(C)C2)C(=O)N1C [PP2922] | AA (a compound having 20 or more is denoted as AA) | A (a compound having 10 or more and less than 20 is denoted as A)
CCC(CC)[C@H]1C(=O)N(C)[C@H](C(=O)N(C)C)CC(=O)N(C)[C@@H](COC)C(=O)N[C@@H]([C@@H](C)CC)C(=O)N(C)CC(=O)N(C)[C@H]2C/C=C\CCN(C2=O)[C@@H](Cc2ccc(C)cc2)C(=O)N(C)CC(=O)N[C@@H](CCc2ccc(C(F)(F)F)c(Cl)c2)C(=O)N2CCCC[C@H]2C(=O)NC2(CC(C)(C)C2)C(=O)N1C [PP2931] | A (a compound having 10 or more and less than 20 is denoted as A) | A (a compound having 10 or more and less than 20 is denoted as A)
CCC(CC)[C@H]1C(=O)N(C)[C@H](C(=O)N(C)C)CC(=O)N(C)[C@@H](COC)C(=O)N[C@@H]([C@@H](C)CC)C(=O)N(C)CC(=O)N(C)[C@H]2C/C=C\CCN(C2=O)[C@@H](Cc2ccc(C)cc2)C(=O)N(C)CC(=O)N[C@@H](CCc2ccc(C(F)(F)F)c(OC)c2)C(=O)N2CCCC[C@H]2C(=O)NC2(CC(C)(C)C2)C(=O)N1C [PP2937] | A (a compound having 10 or more and less than 20 is denoted as A) | A (a compound having 10 or more and less than 20 is denoted as A)
CCC(CC)[C@H]1C(=O)N(C)[C@H](C(=O)N(C)C)CC(=O)N(C)[C@@H](COC)C(=O)N[C@@H]([C@@H](C)CC)C(=O)N(C)CC(=O)N(C)[C@H]2C/C=C\CCN(C2=O)[C@@H](Cc2ccc(C)cc2)C(=O)N(C)CC(=O)N[C@@H](CCc2ccc(C(F)(F)F)c(OC)c2)C(=O)N2CCOC[C@H]2C(=O)NC2(CC(C)(C)C2)C(=O)N1C [PP2938] | AA (a compound having 20 or more is denoted as AA) | A (a compound having 10 or more and less than 20 is denoted as A)
CCC[C@H]1C(=O)N[C@@H]([C@@H](C)CC)C(=O)N(C)CC(=O)N(C)[C@H]2C/C=C\CCN(C2=O)[C@@H](Cc2ccc(C)cc2)C(=O)N(C)CC(=O)N[C@@H](CCc2cc(Cl)c3sccc3c2)C(=O)N2C[C@H](OCC)C[C@H]2C(=O)NC2(CC(C)(C)C2)C(=O)N(C)[C@@H](C2CCCC2)C(=O)N(C)[C@H](C(=O)N(C)C)CC(=O)N1C [PP2947] | B (a compound having 3 or more and less than 10 is denoted as B) | B (a compound having 3 or more and less than 10 is denoted as B)
CCC[C@H]1C(=O)N[C@@H]([C@@H](C)CC)C(=O)N(C)CC(=O)N(C)[C@H]2C/C=C\CCN(C2=O)[C@@H](Cc2ccc(C)cc2)C(=O)N(C)CC(=O)N[C@@H](CCc2cc(Cl)c3c(ccn3C)c2)C(=O)N2C[C@H](OCC)C[C@H]2C(=O)NC2(CC(C)(C)C2)C(=O)N(C)[C@@H](C2CCCC2)C(=O)N(C)[C@H](C(=O)N(C)C)CC(=O)N1C [PP2951] | A (a compound having 10 or more and less than 20 is denoted as A) | A (a compound having 10 or more and less than 20 is denoted as A)
CCC(CC)[C@H]1C(=O)N(C)[C@H](C(=O)N(C)C)CC(=O)N(C)[C@@H](COC)C(=O)N[C@@H]([C@@H](C)CC)C(=O)N(C)CC(=O)N(C)[C@H]2C/C=C\CCN(C2=O)[C@@H](Cc2ccc(C)cc2)C(=O)N(C)CC(=O)N[C@@H](CCc2cc(F)c(C(F)(F)F)c(F)c2)C(=O)N2CCCCC[C@H]2C(=O)NC2(CC(C)(C)C2)C(=O)N1C [PP2960] | A (a compound having 10 or more and less than 20 is denoted as A) | A (a compound having 10 or more and less than 20 is denoted as A)
CCC(CC)[C@H]1C(=O)N(C)[C@H](C(=O)N(C)C)CC(=O)N(C)[C@@H](COC)C(=O)N[C@@H]([C@@H](C)CC)C(=O)N(C)CC(=O)N(C)[C@H]2C/C=C\CCN(C2=O)[C@@H](Cc2ccc(C)cc2)C(=O)N(C)CC(=O)N[C@@H](CCc2ccc(C(F)(F)F)c(Cl)c2)C(=O)N2CCCCC[C@H]2C(=O)NC2(CC(C)(C)C2)C(=O)N1C [PP2966] | A (a compound having 10 or more and less than 20 is denoted as A) | A (a compound having 10 or more and less than 20 is denoted as A)
CCC(CC)[C@H]1C(=O)N(C)[C@H](C(=O)N(C)C)CC(=O)N(C)[C@@H](COC)C(=O)N[C@@H]([C@@H](C)CC)C(=O)N(C)CC(=O)N(C)[C@H]2C/C=C\CCN(C2=O)[C@@H](Cc2ccc(C)cc2)C(=O)N(C)CC(=O)N[C@@H](CCc2ccc(C(F)(F)F)c(Cl)c2)C(=O)N2CC3(CC3)C[C@H]2C(=O)NC2(CC(C)(C)C2)C(=O)N1C [PP2967] | AA (a compound having 20 or more is denoted as AA) | A (a compound having 10 or more and less than 20 is denoted as A)
CCC(CC)[C@H]1C(=O)N(C)[C@H](C(=O)N(C)C)CC(=O)N(C)[C@@H](COC)C(=O)N[C@@H]([C@@H](C)CC)C(=O)N(C)CC(=O)N(C)[C@H]2C/C=C\CCN(C2=O)[C@@H](Cc2ccc(C)cc2)C(=O)N(C)CC(=O)N[C@@H](CCc2ccc(C(F)(F)F)c(OC)c2)C(=O)N2CCCCC[C@H]2C(=O)NC2(CC(C)(C)C2)C(=O)N1C [PP2970] | A (a compound having 10 or more and less than 20 is denoted as A) | A (a compound having 10 or more and less than 20 is denoted as A)
